Results: patent US20140190496A1, “METHODS AND DEVICES FOR COMPOUND DELIVERY” (priority 2012, published 2014)
“And” between values parts separate entries of the source, which are not always exact repeats. Equal entries are not always repeated.

What was measured:
[1] = cited from earlier work
[2] = Aerosol particle size from test airway apparatus with stainless steel foil heater element; format: physicochemical; settings: dose 1 mg
From the text: A hole to deposite drug (2706a) is provided and foil is shown (2708a). Brass contacts (2710a) are provided.

[3] = Aerosol particle size from test apparatus with wire coil heater element; format: physicochemical; settings: stainless steel coil heater, 3.5 coils; air flow 2 Liters/min; dose 1 mg; 2.5 Amps; 1 second
[4] = Particle size diameter of aerosols from ENT-100-A/B/C devices with wire coil heater elements and bypass inlets; format: physicochemical; settings: 1 sec, listed as propylene glycol formulation
From the text: This example describes the particle size diameters (PSD) of aerosols generated from a device comprising a heater element comprising a wire coil. […] The “A Coil” comprises a stretch of coil followed by a straight lead on either end of the coil which connects to the brass contacts. The “B Coil” comprises a stretch of coil, wherein the coil itself connects to the brass contacts.

[5] = Particle size diameter, ENT-100-D, heater element leads lengthened, with or without MARK V adder; format: physicochemical; settings: foam replaced w/SS screen, flow 2.04-2.06 LPM, 2 amps
From the text: This example describes the particle size diameters (PSD) of aerosols generated from a heater element as described in FIG. 36. The length of the leads in this example is 0.70 inches (about 17.78 mm). The heater element is inserted into the device depicted in FIG. 31D. […] In this example, the liquid formulation comprises propylene glycol and it wicks onto the ends of the wire of the heater element and onto the brass contacts.

[6] = Effect of gravity (device rotation) on particle size diameter, ENT-100-D; format: physicochemical; settings: ENT-100-D loaded with 2 mg; device rotated 90 degrees in all dimensions from baseline
From the text: The device is rotated 90 degrees in all dimensions from a stable baseline position. […] As a result, the device produces particles of a consistent size regardless of the orientation in space of the device.

**Q.** Which “time to achieve peak increments of plasma nicotine concentration” value ([1]; smoking a cigarette) does the source give for `CN1CCCC1c1cccnc1` (stereo not shown) [nicotine] here?
**A.** The value was no more than 10 min.

**Q.** What about the “peak increments of plasma nicotine concentration” value ([1]; smoking a single cigarette) of the same compound?
**A.** Its value is 5 to 30 ng/mL.

**Q.** For `CC(O)CO` (stereo not shown) [PG, propylene glycol], which “Particle Size Diameter (microns)” value ([2]; heater element thickness 0.0005 inches, air flow 1 Liters/min, 6 Amps, heating 1 second) is on record?
**A.** Its value is 2.1-3 microns.

**Q.** And the “Particle Size Diameter (microns)” value ([2]; heater element thickness 0.0005 inches, air flow 1 Liters/min, 8 Amps, heating 0.5 seconds)?
**A.** The value was 2 microns.

**Q.** And the “Particle Size Diameter (microns)” value ([2]; heater element thickness 0.001 inches, air flow 1 Liters/min, 8 Amps, heating 0.7 seconds)?
**A.** Its value is 1 microns.

**Q.** What about the “Particle Size Diameter (microns)” value ([2]; heater element thickness 0.001 inches, air flow 3 Liters/min, 7 Amps, heating 1 second) of the same compound?
**A.** The value was 1.8 microns and 2 microns and 1.5-1.8 microns and 1.4-1.8 microns.

**Q.** And the “Particle Size Diameter (microns)” value ([2]; heater element thickness 0.001 inches, air flow 3 Liters/min, 10 Amps, heating 1 second)?
**A.** Its value is 1 microns and 0.9 microns.

**Q.** What about the “Particle Size Diameter (microns)” value ([2]; heater element thickness 0.001 inches, air flow 6 Liters/min, 10 Amps, heating 1 second) of the same compound?
**A.** Its value is 0.6 microns and 0.6-0.8 microns.

**Q.** What about the “Particle Size Diameter (microns)” value ([2]; heater element thickness 0.001 inches, air flow 12 Liters/min, 10 Amps, heating 1 second) of the same compound?
**A.** The value was 0.5 microns.

**Q.** And the “Particle Size Diameter (microns)” value [3]?
**A.** The value was 1.5-2.2 microns.

**Q.** And the “PSD (microns)” value ([4]; B Coil, dose 2 mg, 2.0 amps, heater element moved aft, B configuration (total flow 12 LPM), flow 1.5-1.60 LPM, flow 1.5 LPM)?
**A.** Its value is 1.7-1.8 microns.

**Q.** What about the “PSD (microns)” value ([4]; B Coil, dose 2 mg, 2.0 amps, heater element moved aft, B configuration (total flow 12 LPM), flow 1.5-1.60 LPM, flow 1.60 LPM) of the same compound?
**A.** Its value is 1.7-1.75 microns.

**Q.** What about the “PSD (microns)” value ([4]; ENT-100-B with B Coil, dose 2 mg, 2.0 amps, bypass untaped, total flow ~8.5 LPM, flow 1.5-1.52 LPM, flow 1.5 LPM) of the same compound?
**A.** Its value is 1.8-1.9 microns.

**Q.** What about the “PSD (microns)” value ([4]; ENT-100-B with B Coil, dose 2 mg, 2.0 amps, with stainless steel (SS) screen to even flow, flow 1.55-1.56 LPM, flow 1.56 LPM) of the same compound?
**A.** Its value is 2.6-2.9 microns.

**Q.** What about the “PSD (microns)” value ([4]; ENT-100-C, new heater element .032 ID 0.100 stretch, 2 mg dose, flow 2.04 LPM, 2.6 amps) of the same compound?
**A.** Its value is 2.0-2.5 microns and 2.0-2.2 microns and 2.1-2.3 microns and 2.1-2.2 microns.

**Q.** And the “PSD (microns)” value ([5]; flow 2.04 LPM)?
**A.** The value was 2.7-3.0 microns and 2.8-3.0 microns.

**Q.** What about the “PSD (microns)” value ([5]; flow 2.05 LPM) of the same compound?
**A.** The value was 2.6-2.8 microns.

**Q.** And the “PSD (microns)” value ([5]; flow 2.06 LPM)?
**A.** The value was 3.0-3.1 microns.

**Q.** What about the “particle size diameter at each rotation” value [6] of the same compound?
**A.** Its value is “found not to change”.
